Target: T1, VGLUT1 (Rattus norvegicus, UniProt Q62634)
T1 construct: only the hippocampus and the cerebral cortex were selected and isolated; endogenous in cells; host or cells: primary neurons from hippocampus and cerebral cortex of Sprague Dawley rat fetuses
T1 sequence (Q62634 1-560): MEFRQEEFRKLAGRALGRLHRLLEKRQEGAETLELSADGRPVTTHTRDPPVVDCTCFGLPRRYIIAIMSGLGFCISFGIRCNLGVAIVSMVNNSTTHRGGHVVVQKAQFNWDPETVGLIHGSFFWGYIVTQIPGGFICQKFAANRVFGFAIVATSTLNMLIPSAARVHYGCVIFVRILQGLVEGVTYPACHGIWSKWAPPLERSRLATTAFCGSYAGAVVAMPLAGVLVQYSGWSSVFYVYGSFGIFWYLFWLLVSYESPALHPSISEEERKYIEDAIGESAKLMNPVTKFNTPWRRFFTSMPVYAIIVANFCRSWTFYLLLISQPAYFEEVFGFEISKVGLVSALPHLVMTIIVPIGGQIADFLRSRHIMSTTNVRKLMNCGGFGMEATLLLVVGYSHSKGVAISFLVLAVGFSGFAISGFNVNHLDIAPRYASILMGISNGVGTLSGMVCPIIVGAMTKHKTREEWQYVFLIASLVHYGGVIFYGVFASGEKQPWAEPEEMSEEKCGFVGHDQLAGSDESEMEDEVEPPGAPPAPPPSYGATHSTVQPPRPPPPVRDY
Experiment: In vitro binding test via primary culture: MR phantom study
Format: cell-based, Sprague Dawley rats
Conditions: primary rat brain neurons, 0, 50, 100, 200, 400 μM, 24 hours, washed, 3T MRI; FIG. 6A/6B
Method: 2) In Vitro Binding Test Via Primary Culture 2)-(1). Experimental Method {circumflex over (1)} Primary Culture of Rat Brain Neurons
Sprague Dawley rats at […] of pregnancy were purchased from Daehan Biolink. After stabilizing the pregnant […], respiratory anesthesia was performed using isoflurane, and the fetus was separated from the mother. The fetal brain was separated therefrom, the membrane was removed therefrom, and only the hippocampus and the cerebral cortex were selected and isolated, cut into small pieces, put in HBSS buffer and washed 4 times (centrifugation 1000 rpm, 3 minutes). After the last washing, HBSS was removed, and HBSS buffer containing trypsin was added thereto (cell volume: trypsin HBSS=1:1) and reaction occurred in a constant temperature water bath (37° C.) for 5 minutes. HBSS buffer containing 10% FBS was added thereto ((cell volume+trypsin HBSS): 10% FBS HBSS=1:1) to stop the enzyme reaction of trypsin, and the resulting product passed through 4 layers of lens paper and thus was formed into single cells. The cells were washed 4 times via centrifugation with HBSS buffer, and only the cells separated into the single cells were obtained. […]
The obtained cells were suspended in neurobasal media containing 1×N2 supplement, 1×B27, 4 mM L-glutamine, and 1% antibiotics at 7×10^6 cells per E-tube. […] MRI intensity was analyzed using ImageJ program.

O=C([O-])CN1CCN(CC(=O)[O-])CCN([C@H](CO)[C@H](O)CO)CCN(CC(=O)[O-])CC1.[Gd+3] (racemic) [Gadovist]
phantom signal intensity (brightness) based on Gd concentration: little difference in brightness based on the Gd concentration
